Data: ChEMBL document CHEMBL5360634, “Turonicin A, an Antifungal Linear Polyene Polyketide from an Australian Streptomyces sp” (J Nat Prod, 2023)
In brackets after ≈: the same amount, converted by molar mass.

Tests used:
Bacillus subtilis = assay: Antibacterial activity against Bacillus subtilis ATCC 6633 assessed as inhibition of bacterial growth measured after 48 hrs by resazurin staining based analysis; format: functional
Staphylococcus aureus = assay: Antibacterial activity against Staphylococcus aureus assessed as inhibition of bacterial growth measured after 48 hrs by resazurin staining based analysis; format: functional
Tritrichomonas foetus = assay: Antiprotozoal activity against Tritrichomonas foetus KV-1 strain assessed as inhibition of protozoal growth measured after 72 hrs under anaerobic conditions; format: functional, organism-based; conditions: KV-1, 72 h
Candida albicans = assay: Antifungal activity against Candida albicans ATCC 10231 assessed as reduction in fungal growth measured after 48 hrs by resazurin staining based analysis; format: functional
Saccharomyces cerevisiae = assay: Antifungal activity against Saccharomyces cerevisiae assessed as reduction in fungal growth measured after 48 hrs by resazurin staining based analysis; format: functional
[1] = Antiproliferative activity against mouse NS-1 cells assessed as inhibition of cell growth measured after 48 hrs by resazurin staining based analysis; format: functional; conditions: NS1, 48 h
[2] = Cytotoxicity against human NFF cells assessed as inhibition of cell growth measured after 48 hrs by resazurin staining based analysis; format: toxicity

Row | SMILES | MIC (Bacillus subtilis) | MIC (Staphylococcus aureus) | MIC (Candida albicans) | MIC (Saccharomyces cerevisiae) | IC50 (Tritrichomonas foetus) | IC50 [1] | IC50 at 48 h [2]
1 | CN[C@H](CC(C)C)C(=O)N[C@H]1C(=O)N[C@@H](CC(N)=O)C(=O)N[C@H]2C(=O)N[C@H]3C(=O)N[C@H](C(=O)N[C@H](C(=O)O)c4cc(O)cc(O)c4-c4cc3ccc4O)[C@H](O)c3ccc(c(Cl)c3)Oc3cc2cc(c3O[C@@H]2O[C@H](CO)[C@@H](O)[C@H](O)[C@H]2O[C@H]2C[C@](C)(N)[C@H](O)[C@H](C)O2)Oc2ccc(cc2Cl)[C@H]1O [VANCOMYCIN] | 0.05 µg/mL (≈ 0.0345 µM) | 0.8 µg/mL (≈ 0.552 µM) | – | – | – | – | –
2 | Cc1ncc([N+](=O)[O-])n1CCO [METRONIDAZOLE] | – | – | – | – | 0.9 µM | – | –
3 | CSC[S@+]([O-])C[C@H](CO)NC(=O)/C=C/c1c(C)[nH]c(=O)[nH]c1=O | – | – | – | – | – | 0.4 µM | 1.2 µM
4 | Clc1ccccc1C(c1ccccc1)(c1ccccc1)n1ccnc1 [CLOTRIMAZOLE] | – | – | 100 ng/mL (≈ 0.29 µM) | 400 ng/mL (≈ 1.16 µM) | – | – | –

Second part, led by results:

Row | MIC (Bacillus subtilis) | MIC (Staphylococcus aureus) | MIC (Candida albicans) | MIC (Saccharomyces cerevisiae) | SMILES | IC50 (Tritrichomonas foetus) | IC50 [1] | IC50 at 48 h [2]
5 | 0.097 µg/mL (≈ 0.0852 µM) | 0.39 µg/mL (≈ 0.343 µM) | 3.1 ng/mL (≈ 0.00272 µM) | 0.8 ng/mL (≈ 0.000703 µM) | C\C(=C/C=C/C=C/C=C/CC/C=C/[C@H](C)[C@H](O)[C@@H](C)[C@H](O)/C=C/C=C/C=C/C=C/C=C/C[C@H](O)[C@H](C)C(=O)C[C@H](O)C[C@H](O)C[C@H](O)/C=C/C[C@@H](O)C[C@H](O)C[C@@H](O)C[C@H](O)/C=C/C[C@H](O)/C=C/C[C@H](O)CCCNC(=N)N)C(=O)O | > 80 µM | 44 µM | > 80 µM
6 | 0.097 µg/mL (≈ 0.0832 µM) | 1.5 µg/mL (≈ 1.29 µM) | 0.8 ng/mL (≈ 0.000686 µM) | 0.2 ng/mL (≈ 0.000171 µM) | C\C(=C/C=C/C=C/C=C/C=C/CC/C=C/[C@H](C)[C@H](O)[C@@H](C)[C@H](O)/C=C/C=C/C=C/C=C/C=C/C[C@H](O)[C@H](C)C(=O)C[C@H](O)C[C@H](O)C[C@H](O)/C=C/C[C@@H](O)C[C@H](O)C[C@@H](O)C[C@H](O)/C=C/C[C@H](O)/C=C/C[C@H](O)C[C@H](O)CCCN)C(=O)O | > 80 µM | > 80 µM | > 80 µM
7 | 0.39 µg/mL (≈ 0.342 µM) | 3.1 µg/mL (≈ 2.72 µM) | 1.5 ng/mL (≈ 0.00132 µM) | 0.4 ng/mL (≈ 0.000351 µM) | C\C(=C/C=C/C=C/C=C/CC/C=C/[C@H](C)[C@H](O)[C@@H](C)[C@H](O)/C=C/C=C/C=C/C=C/C=C/C[C@H](O)[C@H](C)C(=O)C[C@H](O)C[C@H](O)C[C@H](O)/C=C/C[C@@H](O)C[C@H](O)C[C@@H](O)C[C@H](O)/C=C/C[C@H](O)/C=C/C[C@H](O)C[C@H](O)CCCN)C(=O)O | > 80 µM | > 80 µM | > 80 µM
